From ChEMBL document CHEMBL3826915, “Design and comparative anticonvulsant activity assessment of CNS-active alkyl-carbamoyl imidazole derivatives” (Bioorg Med Chem, 2016)
Calls of active or inactive are those of the source. The calls are words filed in the database; no cut-off is given here.

Columns and labels:
Mus musculus [1] = test: Anticonvulsant activity in albino CF1 mouse assessed as protection against maximal electroshock-induced seizures at 100 mg/kg, ip after 0.5 hrs; assay type: functional, organism-based
Mus musculus [2] = test: Anticonvulsant activity in albino CF1 mouse assessed as protection against maximal electroshock-induced seizures at 30 mg/kg, ip after 2 hrs; assay type: functional, organism-based
Mus musculus [3] = test: Anticonvulsant activity in albino CF1 mouse assessed as protection against maximal electroshock-induced seizures at 100 mg/kg, ip after 2 hrs; assay type: functional, organism-based
Mus musculus [4] = test: Anticonvulsant activity in albino CF1 mouse assessed as protection against 32 mA current-induced seizure at 30 mg/kg, ip after 0.5 hrs by 6 Hz psychomotor test; assay type: functional, organism-based
Mus musculus [5] = test: Anticonvulsant activity in albino CF1 mouse assessed as protection against 32 mA current-induced seizure at 100 mg/kg, ip after 0.5 hrs by 6 Hz psychomotor test; assay type: functional, organism-based
Mus musculus [6] = test: Anticonvulsant activity in albino CF1 mouse assessed as protection against 32 mA current-induced seizure at 30 mg/kg, ip after 2 hrs by 6 Hz psychomotor test; assay type: functional, organism-based
Mus musculus [7] = test: Anticonvulsant activity in albino CF1 mouse assessed as protection against 44 mA current-induced seizure at 100 mg/kg, ip after 0.25 hrs by 6 Hz psychomotor test; assay type: functional, organism-based
Mus musculus [8] = test: Anticonvulsant activity in albino CF1 mouse assessed as protection against 44 mA current-induced seizure at 100 mg/kg, ip after 2 hrs by 6 Hz psychomotor test; assay type: functional, organism-based
Mus musculus [9] = test: Neurotoxicity in albino CF1 mouse assessed as behavioral impairment at 30 mg/kg, ip after 0.5 hrs by rotorod test; assay type: toxicity, organism-based; conditions: in vivo
Mus musculus [10] = test: Neurotoxicity in albino CF1 mouse assessed as behavioral impairment at 100 mg/kg, ip after 0.5 hrs by rotorod test; assay type: toxicity, organism-based; conditions: in vivo
Mus musculus [11] = test: Neurotoxicity in albino CF1 mouse assessed as behavioral impairment at 300 mg/kg, ip after 0.5 hrs by rotorod test; assay type: toxicity, organism-based; conditions: in vivo
Mus musculus [12] = test: Neurotoxicity in albino CF1 mouse assessed as behavioral impairment at 30 mg/kg, ip after 2 hrs by rotorod test; assay type: toxicity, organism-based; conditions: in vivo
Mus musculus [13] = test: Neurotoxicity in albino CF1 mouse assessed as behavioral impairment at 100 mg/kg, ip after 2 hrs by rotorod test; assay type: toxicity, organism-based; conditions: in vivo
Mus musculus [14] = test: Neurotoxicity in albino CF1 mouse assessed as behavioral impairment at 100 mg/kg, ip after 0.25 hrs by rotorod test; assay type: toxicity, organism-based; conditions: in vivo
Mus musculus [15] = test: Neurotoxicity in albino CF1 mouse assessed as behavioral impairment at 100 mg/kg, ip after 1 hr by rotorod test; assay type: toxicity, organism-based; conditions: in vivo
Rattus norvegicus [16] = test: Anticonvulsant activity in albino Sprague-Dawley rat assessed as protection against maximal electroshock-induced seizures at 30 mg/kg, po after 0.25 hrs; assay type: functional, organism-based
Rattus norvegicus [17] = test: Anticonvulsant activity in albino Sprague-Dawley rat assessed as protection against maximal electroshock-induced seizures at 30 mg/kg, po after 0.5 hrs; assay type: functional, organism-based
Rattus norvegicus [18] = test: Anticonvulsant activity in albino Sprague-Dawley rat assessed as protection against maximal electroshock-induced seizures at 30 mg/kg, po after 1 hr; assay type: functional, organism-based
Rattus norvegicus [19] = test: Anticonvulsant activity in albino Sprague-Dawley rat assessed as protection against maximal electroshock-induced seizures at 30 mg/kg, po after 2 hrs; assay type: functional, organism-based
Rattus norvegicus [20] = test: Neurotoxicity in albino Sprague-Dawley rat assessed as behavioral impairment at 30 mg/kg, ip after 0.25 hrs by rotorod test; assay type: toxicity, organism-based; conditions: in vivo
Rattus norvegicus [21] = test: Neurotoxicity in albino Sprague-Dawley rat assessed as behavioral impairment at 30 mg/kg, po after 0.25 hrs by rotorod test; assay type: toxicity, organism-based; conditions: in vivo
Rattus norvegicus [22] = test: Neurotoxicity in albino Sprague-Dawley rat assessed as behavioral impairment at 30 mg/kg, ip after 0.5 hrs by rotorod test; assay type: toxicity, organism-based; conditions: in vivo
Rattus norvegicus [23] = test: Neurotoxicity in albino Sprague-Dawley rat assessed as behavioral impairment at 30 mg/kg, po after 0.5 hrs by rotorod test; assay type: toxicity, organism-based; conditions: in vivo
Rattus norvegicus [24] = test: Neurotoxicity in albino Sprague-Dawley rat assessed as behavioral impairment at 30 mg/kg, ip after 1 hr by rotorod test; assay type: toxicity, organism-based; conditions: in vivo
Rattus norvegicus [25] = test: Neurotoxicity in albino Sprague-Dawley rat assessed as behavioral impairment at 30 mg/kg, po after 1 hr by rotorod test; assay type: toxicity, organism-based; conditions: in vivo
Rattus norvegicus [26] = test: Neurotoxicity in albino Sprague-Dawley rat assessed as behavioral impairment at 30 mg/kg, ip after 2 hrs by rotorod test; assay type: toxicity, organism-based; conditions: in vivo
Rattus norvegicus [27] = test: Neurotoxicity in albino Sprague-Dawley rat assessed as behavioral impairment at 30 mg/kg, po after 2 hrs by rotorod test; assay type: toxicity, organism-based; conditions: in vivo
Rattus norvegicus [28] = test: Anticonvulsant activity in ip dosed albino Sprague-Dawley rat assessed as protection against maximal electroshock-induced seizures; assay type: functional
Rattus norvegicus [29] = test: Anticonvulsant activity in ip dosed albino Sprague-Dawley rat assessed as protection against maximal electroshock-induced seizures by measuring time to peak effect; assay type: functional
[30] = Protective index, ratio of TD50 for neurotoxicity in ip dosed albino Sprague-Dawley rat to ED50 for anticonvulsant activity in ip dosed maximal electroshock-induced seizure albino Sprague-Dawley rat model; assay type: toxicity, organism-based; conditions: in vivo, read-out: Ratio TD50/ED50
Rattus norvegicus [31] = test: Anticonvulsant activity in ip dosed albino Sprague-Dawley rat assessed as protection against subcutaneous metrazol-induced seizures; assay type: functional
[32] = Protective index, ratio of TD50 for neurotoxicity in ip dosed albino Sprague-Dawley rat to ED50 for anticonvulsant activity in ip dosed subcutaneous metrazol-induced seizure albino Sprague-Dawley rat model; assay type: toxicity, organism-based; conditions: in vivo, read-out: Ratio TD50/ED50
[33] = Neurotoxicity in ip dosed albino Sprague-Dawley rat assessed as motor impairment by rotorod test; assay type: toxicity, organism-based; conditions: in vivo
Rattus norvegicus [34] = test: Anticonvulsant activity in ip dosed albino Sprague-Dawley rat assessed as protection against subcutaneous metrazol-induced seizures by measuring time to peak effect; assay type: functional
Mus musculus [35] = test: Anticonvulsant activity in ip dosed albino CF1 mouse assessed as protection against maximal electroshock-induced seizures; assay type: functional
Mus musculus [36] = test: Anticonvulsant activity in ip dosed albino CF1 mouse assessed as protection against subcutaneous metrazol-induced seizures; assay type: functional
Mus musculus [37] = test: Anticonvulsant activity in ip dosed albino CF1 mouse assessed as protection against maximal electroshock-induced seizures by measuring time to peak effect; assay type: functional
Mus musculus [38] = test: Anticonvulsant activity in ip dosed albino CF1 mouse assessed as protection against subcutaneous metrazol-induced seizures by measuring time to peak effect; assay type: functional
Mus musculus [39] = test: Anticonvulsant activity in ip dosed albino CF1 mouse assessed as protection against 6 Hz current-induced seizures by psychomotor test; assay type: functional
Mus musculus [40] = test: Anticonvulsant activity in ip dosed albino CF1 mouse assessed as protection against 6 Hz current-induced seizure by measuring time to peak effect; assay type: functional
[41] = Protective index, ratio of TD50 for neurotoxicity in ip dosed albino CF1 mouse to ED50 for anticonvulsant activity in ip dosed 6 Hz current-induced seizure albino CF1 mouse model; conditions: in vivo
[42] = Neurotoxicity in ip dosed albino CF1 mouse assessed as motor impairment by rotorod test; assay type: toxicity, organism-based; conditions: in vivo

**Q.** For `CC(COC(=O)NCCCn1ccnc1)CC(C)(C)C` (configuration not stated), which Activity (Mus musculus [1]) is on record?
**A.** Active

**Q.** What about the Activity (Mus musculus [2]) of the same compound?
**A.** inactive

**Q.** What about the Activity (Mus musculus [3]) of the same compound?
**A.** Active

**Q.** What about the Activity (Mus musculus [4]) of the same compound?
**A.** inactive

**Q.** And the Activity (Mus musculus [5])?
**A.** Active

**Q.** What about the Activity (Mus musculus [6]) of the same compound?
**A.** inactive

**Q.** And the Activity (Mus musculus [7])?
**A.** Active

**Q.** What about the Activity (Mus musculus [8]) of the same compound?
**A.** inactive

**Q.** What about the Activity (Mus musculus [9]) of the same compound?
**A.** Non-toxic

**Q.** And the Activity (Mus musculus [10])?
**A.** Toxic

**Q.** What about the Activity (Mus musculus [11]) of the same compound?
**A.** Toxic

**Q.** What about the Activity (Mus musculus [12]) of the same compound?
**A.** Non-toxic

**Q.** What about the Activity (Mus musculus [13]) of the same compound?
**A.** Non-toxic

**Q.** And the Activity (Mus musculus [14])?
**A.** Toxic

**Q.** What about the Activity (Mus musculus [15]) of the same compound?
**A.** Non-toxic

**Q.** What about the Activity (Rattus norvegicus [16]) of the same compound?
**A.** inactive

**Q.** And the Activity (Rattus norvegicus [17])?
**A.** inactive

**Q.** What about the Activity (Rattus norvegicus [18]) of the same compound?
**A.** inactive

**Q.** What about the Activity (Rattus norvegicus [19]) of the same compound?
**A.** inactive

**Q.** And the Activity (Rattus norvegicus [20])?
**A.** Non-toxic

**Q.** What about the Activity (Rattus norvegicus [21]) of the same compound?
**A.** Non-toxic

**Q.** What about the Activity (Rattus norvegicus [22]) of the same compound?
**A.** Non-toxic

**Q.** And the Activity (Rattus norvegicus [23])?
**A.** Non-toxic

**Q.** And the Activity (Rattus norvegicus [24])?
**A.** Non-toxic

**Q.** And the Activity (Rattus norvegicus [25])?
**A.** Non-toxic

**Q.** What about the Activity (Rattus norvegicus [26]) of the same compound?
**A.** Non-toxic

**Q.** And the Activity (Rattus norvegicus [27])?
**A.** Non-toxic

**Q.** And the ED50 (Rattus norvegicus [28])?
**A.** 17 mg/kg

**Q.** And the Time (Rattus norvegicus [29])?
**A.** 0.25 h

**Q.** What about the selectivity ratio [30] of the same compound?
**A.** 4.1

**Q.** What about the ED50 (Rattus norvegicus [31]) of the same compound?
**A.** > 70 mg/kg

**Q.** What about the selectivity ratio [32] of the same compound?
**A.** 1

**Q.** What about the TD50 [33] of the same compound?
**A.** 70 mg/kg

**Q.** What about the Time (Rattus norvegicus [34]) of the same compound?
**A.** 0.25 h

**Q.** What about the ED50 (Mus musculus [35]) of the same compound?
**A.** inactive

**Q.** And the ED50 (Mus musculus [36])?
**A.** inactive

**Q.** What about the Time (Mus musculus [37]) of the same compound?
**A.** 0.5 h

**Q.** What about the Time (Mus musculus [38]) of the same compound?
**A.** 0.5 h

**Q.** What about the ED50 (Mus musculus [39]) of the same compound?
**A.** 44 mg/kg

**Q.** What about the Time (Mus musculus [40]) of the same compound?
**A.** 0.5 h

**Q.** What about the selectivity ratio [41] of the same compound?
**A.** 1.4

**Q.** And the TD50 [42]?
**A.** 60 mg/kg
